Data as given in article PMC8704606, “The Artemiside-Artemisox-Artemisone-M1 Tetrad: Efficacies against Blood Stage P. falciparum Parasites, DMPK Properties, and the Case for Artemiside” (Pharmaceutics, 2021).
Read-outs that look alike come from different tables or passages of the source.

Experiments:
[1] = Cytotoxicity (LDH assay) against HepG2 cells; assay type: cell-based; details: human, HepG2 cells (hepatocellular carcinoma)
Description: Cytotoxicity against mammalian hepatocellular carcinoma cells (HepG2 cells) was determined using the lactate dehydrogenase assay (LDH, Biovision Inc., Milpitas, CA, USA). […] Compound working solutions were prepared from 10 mM stock solutions (100% DMSO) in complete DMEM to a final DMSO (Sigma-Aldrich) conc. of <0.1% (vol/vol). […] Data analysis was performed using GraphPad Prism (version 6) software.

[2] = tested on: late-stage (LG) Pf NF54 gametocytes; assay: Luciferase assay, late-stage gametocytes; assay type: cell-based, Plasmodium falciparum; details: late-stage gametocytes >90% stages IV-V, dose response obtained at 72 h, ± SEM
Description: For screening artemisox and M1 against early- (EG) and late-stage (LG) gametocytes, the luciferase assay with transgenic NF54-pfs16-GFP-Luc and NF54-Mal8p1.16-GFP-Luc parasite lines was used. With this assay, stage-specificity of gametocytocidal action was established (Table 2). Dose-response curves are in Figures S1d,e and S2d in the Supplementary Material 1. […] As was observed previously for artemisone and artemiside, dose responses for artemisox and M1 could not be obtained at 48 h against late-stage gametocytes.
The same reference compounds with the exception of CQ were used for the early- and late-stage gametocyte assays. Gametocytocidal activity was determined using the transgenic NF54-pfs16-GFP-Luc and NF54-Mal8p1.16-GFP-Luc reporter lines. Compounds were initially screened for activity at a fixed drug concentration of 1 µM, with dose responses subsequently determined using 2-fold serial drug dilutions for 48 h against early-stage gametocytes (day 5 post-induction population, ≥95% stages II–III) and 10-fold serial drug dilutions for 48 h or 72 h against late-stage gametocytes (day 10 post-induction population, ≥90% late-stage [stages IV–V]) (2 to 3% gametocytemia, 2% hematocrit) at 37 °C under 90% N2, 5% CO2, and 5% O2 [6]. No drug washout steps were performed during the drug incubation periods prior to the assays. In all cases, an interference assay was run in parallel to eliminate the possibility of false positives arising through compound interference with the luciferase readout.

[3] = Pharmacokinetics and metabolism after iv and po administration; assay type: in vivo; details: for half-life: mean ± SD, read-out: t½ (converted); for MRT last: read-out: MRT0-last; for AUC(0-t): up to 7 h
Description: The plasma concentration-time profiles of the parent compounds and metabolites after administration iv and po to male C57/BL6 mice are presented in Figure 2, Figure 3 and Figure 4. Artemiside was quantifiable up to 24 h in all mice dosed iv and up to 7 h po (lower limit of quantitation LLOQ = 1.6 ng/mL or 0.004 μM) (Figure 2). […] For both artemiside and artemisox, the metabolite artemisone was quantifiable up to 3 h in both the po and iv groups (Figure 2 and Figure 3). Thereby it is confirmed that artemiside is rapidly converted via artemisox into artemisone. Artemisone itself was quantifiable up to three hours post dose (Figure 4). The mean circulating concentrations for the compounds and their metabolites are presented in Table S3a–f in the Supplementary Material 1. The metabolite M1 was also detected upon administration of artemiside, artemisox, and artemisone, but it was not quantified here; chromatograms indicating the presence of M1 are illustrated in Figure S3a–c in the Supplementary Material 1. In addition, the plasma concentration-time curves for artemiside and its metabolites artemisone and M1 following iv and po dosing in the same murine model are presented and discussed in detail elsewhere (cf. Figure 4 in reference).
All work was conducted with prior approval of the animal ethics committee of the University of Cape Town in accordance with the South African National Standards for the Care and Use of Animals for Scientific Purposes and guidelines from the South African Department of Health. The requirements and methods for the pharmacokinetics in vivo involving po and iv drug administration, sample extraction, analyses of samples by LC-MS/MS, and data analyses are described elsewhere. For the animal experiments and formulations, the compounds were dissolved in a 10:60:30 mixture of N,N-dimethylacetamide-polypropylene glycol-polyethylene glycol for intravenous dosing (iv) at 5 mg/kg. For the oral dose (po), compounds were individually dosed as a suspension in 0.5% (w/v) hydroxypropylmethylcellulose in water with 0.2% Tween80 at 50 mg/kg to male C57/BL6 mice (n = 3 for each group). For PK sampling, blood samples were collected at predetermined times (0.08, 0.25, 0.5, 1, 3, 5, 7, and 24 h) for both po and iv dosing via tail bleeding into heparinized tubes, centrifuged, and the plasma samples were stored at −80 °C until extraction. For preparation of samples, the frozen plasma samples were thawed and 15 μL was extracted by liquid–liquid extraction using a universal buffer (pH8) containing 10 ng/mL of the internal standard and ethyl acetate, and the extract was vortexed and centrifuged. Calibration standards and quality controls were extracted following the same procedure. Supernatants were dried down, reconstituted, and injected onto the column for LC-MS/MS analysis using an AB SCIEX 5500 QTRAP instrument coupled to an Agilent 1260 HPLC detection system as previously described.

[4] = male, C57/BL6, mouse, plasma, iv 5 mg/kg, parent drug
[5] = male, C57/BL6, mouse, plasma, po 50 mg/kg, parent drug

C[C@H]1[C@H](N2CC[S+]([O-])CC2)O[C@@H]2O[C@@]3(C)CC[C@H]4[C@H](C)CC[C@@H]1[C@@]24OO3 [Artemisox 6, Artemisox]
IC50 at 24 h [1]: > 50000 nM
IC50 ([2]; Plasmodium falciparum, NF54, 72 h): 2.7 nM
IC50 [2]: 2.72 ± 0.09 nM
Mean iv circulating concentration ([3]; 7 h after iv 5 mg/kg artemisox 6): blq
Mean iv circulating concentration ([3]; 24 h after iv 5 mg/kg artemisox 6): blq
Mean po circulating concentration ([3]; 24 h after po 50 mg/kg artemiside 5): blq
Mean po circulating concentration ([3]; 24 h after po 50 mg/kg artemisox 6): blq
quantifiable/detectable in plasma up to ([3]; iv group, parent drug, LLOQ 1.6 ng/mL or 0.004 μM for artemiside): up to 5 h
concentration at 0.08 h ([3]; male, C57/BL6, mouse, plasma, iv, 5 mg/kg, 0.08 h after iv 5 mg/kg artemiside 5, read-out: Mean iv circulating concentration): 1930 nM
concentration at 0.08 h ([3]; male, C57/BL6, mouse, plasma, iv, 5 mg/kg, 0.08 h after iv 5 mg/kg artemisox 6, read-out: Mean iv circulating concentration): 1900 nM
concentration at 0.25 h ([3]; male, C57/BL6, mouse, plasma, iv, 5 mg/kg, 0.25 h after iv 5 mg/kg artemiside 5, read-out: Mean iv circulating concentration): 1820 nM
concentration at 0.25 h ([3]; male, C57/BL6, mouse, plasma, iv, 5 mg/kg, 0.25 h after iv 5 mg/kg artemisox 6, read-out: Mean iv circulating concentration): 2420 nM
concentration at 0.5 h ([3]; male, C57/BL6, mouse, plasma, iv, 5 mg/kg, 0.5 h after iv 5 mg/kg artemiside 5, read-out: Mean iv circulating concentration): 1380 nM
concentration at 0.5 h ([3]; male, C57/BL6, mouse, plasma, iv, 5 mg/kg, 0.5 h after iv 5 mg/kg artemisox 6, read-out: Mean iv circulating concentration): 1920 nM
concentration at 1 h ([3]; male, C57/BL6, mouse, plasma, iv, 5 mg/kg, 1 h after iv 5 mg/kg artemiside 5, read-out: Mean iv circulating concentration): 674 nM
concentration at 1 h ([3]; male, C57/BL6, mouse, plasma, iv, 5 mg/kg, 1 h after iv 5 mg/kg artemisox 6, read-out: Mean iv circulating concentration): 663 nM
concentration at 3 h ([3]; male, C57/BL6, mouse, plasma, iv, 5 mg/kg, 3 h after iv 5 mg/kg artemiside 5, read-out: Mean iv circulating concentration): 66 nM
concentration at 3 h ([3]; male, C57/BL6, mouse, plasma, iv, 5 mg/kg, 3 h after iv 5 mg/kg artemisox 6, read-out: Mean iv circulating concentration): 7 nM
concentration at 5 h ([3]; male, C57/BL6, mouse, plasma, iv, 5 mg/kg, 5 h after iv 5 mg/kg artemiside 5, read-out: Mean iv circulating concentration): 20 nM
concentration at 5 h ([3]; male, C57/BL6, mouse, plasma, iv, 5 mg/kg, 5 h after iv 5 mg/kg artemisox 6, read-out: Mean iv circulating concentration): 7 nM
concentration at 7 h ([3]; male, C57/BL6, mouse, plasma, iv, 5 mg/kg, 7 h after iv 5 mg/kg artemiside 5, read-out: Mean iv circulating concentration): 11 nM
concentration at 24 h ([3]; male, C57/BL6, mouse, plasma, iv, 5 mg/kg, 24 h after iv 5 mg/kg artemiside 5, read-out: Mean iv circulating concentration): 5 nM
half-life ([3]; male, C57/BL6, mouse, plasma, iv, 5 mg/kg, iv 5 mg/kg, parent drug): 25.8 ± 7.2 min
concentration at 0.08 h ([3]; male, C57/BL6, mouse, plasma, po, 50 mg/kg, 0.08 h after po 50 mg/kg artemiside 5, read-out: Mean po circulating concentration): 1860 nM
concentration at 0.08 h ([3]; male, C57/BL6, mouse, plasma, po, 50 mg/kg, 0.08 h after po 50 mg/kg artemisox 6, read-out: Mean po circulating concentration): 3040 nM
concentration at 0.25 h ([3]; male, C57/BL6, mouse, plasma, po, 50 mg/kg, 0.25 h after po 50 mg/kg artemiside 5, read-out: Mean po circulating concentration): 2150 nM
concentration at 0.25 h ([3]; male, C57/BL6, mouse, plasma, po, 50 mg/kg, 0.25 h after po 50 mg/kg artemisox 6, read-out: Mean po circulating concentration): 4210 nM
concentration at 0.5 h ([3]; male, C57/BL6, mouse, plasma, po, 50 mg/kg, 0.5 h after po 50 mg/kg artemiside 5, read-out: Mean po circulating concentration): 2510 nM
concentration at 0.5 h ([3]; male, C57/BL6, mouse, plasma, po, 50 mg/kg, 0.5 h after po 50 mg/kg artemisox 6, read-out: Mean po circulating concentration): 2150 nM
concentration at 1 h ([3]; male, C57/BL6, mouse, plasma, po, 50 mg/kg, 1 h after po 50 mg/kg artemiside 5, read-out: Mean po circulating concentration): 2030 nM
concentration at 1 h ([3]; male, C57/BL6, mouse, plasma, po, 50 mg/kg, 1 h after po 50 mg/kg artemisox 6, read-out: Mean po circulating concentration): 2010 nM
concentration at 3 h ([3]; male, C57/BL6, mouse, plasma, po, 50 mg/kg, 3 h after po 50 mg/kg artemiside 5, read-out: Mean po circulating concentration): 286 nM
concentration at 3 h ([3]; male, C57/BL6, mouse, plasma, po, 50 mg/kg, 3 h after po 50 mg/kg artemisox 6, read-out: Mean po circulating concentration): 13 nM
concentration at 5 h ([3]; male, C57/BL6, mouse, plasma, po, 50 mg/kg, 5 h after po 50 mg/kg artemiside 5, read-out: Mean po circulating concentration): 7 nM
concentration at 5 h ([3]; male, C57/BL6, mouse, plasma, po, 50 mg/kg, 5 h after po 50 mg/kg artemisox 6, read-out: Mean po circulating concentration): 5 nM
concentration at 7 h ([3]; male, C57/BL6, mouse, plasma, po, 50 mg/kg, 7 h after po 50 mg/kg artemiside 5, read-out: Mean po circulating concentration): 5 nM
concentration at 7 h ([3]; male, C57/BL6, mouse, plasma, po, 50 mg/kg, 7 h after po 50 mg/kg artemisox 6, read-out: Mean po circulating concentration): 4 nM
half-life ([3]; male, C57/BL6, mouse, plasma, po, 50 mg/kg, po 50 mg/kg, parent drug): 32.4 ± 6 min
clearance ([3]; male, C57/BL6, mouse, plasma, iv 5 mg/kg): 115 mL/min/kg
AUC(0-inf) [3, 4]: 2 ± 0.7 µM·h
MRT last ([3]; male, C57/BL6, mouse, plasma, iv 5 mg/kg, parent drug, 0-last up to 7 h): 34.2 ± 2.4 min
AUC(0-t) [3, 4]: 2 ± 0.7 µM·h
Vd ([3]; male, C57/BL6, mouse, plasma, iv 5 mg/kg, read-out: Vss): 4 ± 1.2 L/kg
bioavailability ([3]; male, C57/BL6, mouse, plasma, po 50 mg/kg vs iv 5 mg/kg, read-out: F (bioavailability)): 16 ± 2%
Cmax [3, 5]: 4500 ± 2300 nM
MRT last [3, 5]: 41.4 ± 5.4 min
AUC(0-t) [3, 5]: 3.3 ± 1.4 µM·h
MAT (mean absorption time = MRTpo–MRTiv) ([3]; po 50 mg/kg): 7.8 ± 4.2 min
quantifiable/detectable in plasma up to ([3]; po group, parent drug): up to 7 h
